Source: US20080269348A1, “Novel Arylbicyclo[3.1.0]Hexylamines And Methods And Compositions For Their Preparation And Use” (priority 2006, published 2008)

Tests used:
[1] = target: T1, norepinephrine (NE) uptake (Rattus norvegicus, UniProt Q63380); experiment: Inhibition of [3H]NE uptake in rat hypothalamus synaptosomes; format: biochemical; details: 500 nM, 20 min at 37° C.
T1 construct: synaptosomal preparations were made from either whole brain (5-HT), striatum (DA) or hypothalamus (NE); from tissue; host or cells: rat hypothalamus synaptosomes
T1 sequence (Q63380 1-617): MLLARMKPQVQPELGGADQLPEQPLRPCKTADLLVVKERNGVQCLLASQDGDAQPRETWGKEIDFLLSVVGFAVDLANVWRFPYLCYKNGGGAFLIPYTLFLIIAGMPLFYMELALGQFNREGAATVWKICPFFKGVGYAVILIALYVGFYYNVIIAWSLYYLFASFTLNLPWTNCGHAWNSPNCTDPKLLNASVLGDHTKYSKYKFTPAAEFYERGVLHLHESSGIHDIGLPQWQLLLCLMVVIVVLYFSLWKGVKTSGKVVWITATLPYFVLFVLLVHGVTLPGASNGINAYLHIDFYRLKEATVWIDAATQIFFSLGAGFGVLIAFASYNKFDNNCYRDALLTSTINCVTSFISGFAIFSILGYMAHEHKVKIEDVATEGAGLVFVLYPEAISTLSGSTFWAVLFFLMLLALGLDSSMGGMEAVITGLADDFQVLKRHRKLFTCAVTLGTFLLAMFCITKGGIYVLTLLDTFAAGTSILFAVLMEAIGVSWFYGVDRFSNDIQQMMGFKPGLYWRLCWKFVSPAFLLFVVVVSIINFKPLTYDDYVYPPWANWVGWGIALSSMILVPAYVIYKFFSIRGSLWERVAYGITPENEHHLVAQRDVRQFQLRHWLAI
Protocol: (§1) The effects of arylbicyclo[3.1.0]hexylamines of the invention for inhibiting transport of norepinephrine (NE) and/or dopamine (DA) and/or serotonin (5-HT) were evaluated using preparations of synaptosomes from different regions of the rat brain according to previously-reported techniques.
(§2) Whole brains were obtained from normal rats, and synaptosomal preparations were made from either whole brain (5-HT), striatum (DA) or hypothalamus (NE) by gentle disruption in 10 volumes (w/v) of 0.32 M sucrose (0-4° C.) using a Teflon-glass homogenizer. The homogenate was then centrifuged at 1000×g for 10 min. The supernatant was retained and centrifuged at 23000 g for 20 min. The resulting pellet was gently resuspended in 200 volumes of 0.32 M sucrose (0-4° C.) using a teflon-glass homogenizer. Aliquots (250 μL) of this preparation were added to tubes, along with 0.2 μCi/mL of [^3H]5-HT, [^3H]DA, or [^3H]NE, 200 μL of selected 1-arylbicyclo[3.1.0]hexanamine test compounds (to yield final concentrations of 500 nM) and 1 mL of Krebs-Ringer bicarbonate buffer (pH 7.4). […] At the end of this period, the assay was terminated by rapid filtration over Whatman GF/C glass fiber filters. The filters were rinsed 3 times with 4 ml of Krebs-Ringer bicarbonate buffer (0-4° C.), and the radioactivity retained on the filters was measured by liquid scintillation spectrometry.

dopamine (DA) uptake = target: T2, dopamine (DA) uptake (Rattus norvegicus, UniProt P23977); experiment: biochemical; details: read-out: Uptake Inhibition % at 500 nM DA
T2 construct: synaptosomal preparations were made from either whole brain (5-HT), striatum (DA) or hypothalamus (NE); from tissue; host or cells: rat striatum synaptosomes
T2 sequence (P23977 whole entry): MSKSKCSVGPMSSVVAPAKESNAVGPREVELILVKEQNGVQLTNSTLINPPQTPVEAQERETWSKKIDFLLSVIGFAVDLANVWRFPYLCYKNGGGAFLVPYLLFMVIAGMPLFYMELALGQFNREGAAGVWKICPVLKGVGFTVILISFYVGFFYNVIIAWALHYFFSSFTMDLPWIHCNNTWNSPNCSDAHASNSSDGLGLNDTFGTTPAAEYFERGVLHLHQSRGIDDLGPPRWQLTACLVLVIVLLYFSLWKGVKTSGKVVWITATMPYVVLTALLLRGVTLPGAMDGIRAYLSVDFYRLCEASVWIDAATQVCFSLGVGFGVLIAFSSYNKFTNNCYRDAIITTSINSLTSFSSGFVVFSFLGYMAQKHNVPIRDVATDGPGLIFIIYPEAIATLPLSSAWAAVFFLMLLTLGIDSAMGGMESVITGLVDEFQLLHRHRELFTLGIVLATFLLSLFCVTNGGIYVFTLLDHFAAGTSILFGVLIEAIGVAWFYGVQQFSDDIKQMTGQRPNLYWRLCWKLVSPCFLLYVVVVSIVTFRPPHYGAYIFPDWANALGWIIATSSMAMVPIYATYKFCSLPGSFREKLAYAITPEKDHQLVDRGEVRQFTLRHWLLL
Protocol: as §1, §2

serotonin (5-HT) uptake = target: T3, serotonin (5-HT) uptake (Rattus norvegicus, UniProt P31652); experiment: biochemical; details: read-out: Uptake Inhibition % at 500 nM 5-HT
T3 construct: synaptosomal preparations were made from either whole brain (5-HT), striatum (DA) or hypothalamus (NE); from tissue; host or cells: rat whole brain synaptosomes
T3 sequence (P31652 whole entry): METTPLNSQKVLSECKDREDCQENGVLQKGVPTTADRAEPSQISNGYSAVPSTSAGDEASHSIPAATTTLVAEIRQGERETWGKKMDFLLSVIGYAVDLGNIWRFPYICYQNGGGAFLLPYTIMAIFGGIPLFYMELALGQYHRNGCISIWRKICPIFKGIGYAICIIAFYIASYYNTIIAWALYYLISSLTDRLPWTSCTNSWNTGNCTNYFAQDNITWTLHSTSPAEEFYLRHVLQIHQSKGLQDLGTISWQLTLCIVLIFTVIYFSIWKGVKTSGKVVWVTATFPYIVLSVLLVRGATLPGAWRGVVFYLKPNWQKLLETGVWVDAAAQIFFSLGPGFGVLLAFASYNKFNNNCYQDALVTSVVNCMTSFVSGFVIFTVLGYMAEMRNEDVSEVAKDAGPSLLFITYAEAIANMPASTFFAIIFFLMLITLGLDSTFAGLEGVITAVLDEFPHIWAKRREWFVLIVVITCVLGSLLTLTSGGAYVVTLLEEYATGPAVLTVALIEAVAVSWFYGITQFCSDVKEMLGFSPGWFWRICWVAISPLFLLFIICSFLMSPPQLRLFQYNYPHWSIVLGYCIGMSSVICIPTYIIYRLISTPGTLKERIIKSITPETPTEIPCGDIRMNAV
Protocol: as §1, §2

**Q.** Which inhibition at 0.5 µM [1] does the source give for `NC1C[C@H]2C[C@]2(c2ccc(Cl)c(Cl)c2)C1` (stereo partly drawn) here?
**A.** The inhibition at 0.5 µM was 59%.

**Q.** And the inhibition at 0.5 µM (dopamine (DA) uptake)?
**A.** Its inhibition at 0.5 µM is 83%.

**Q.** And the inhibition at 0.5 µM (serotonin (5-HT) uptake)?
**A.** The inhibition at 0.5 µM was 75%.

**Q.** With `NC1C[C@H]2C[C@]2(c2cccc3ccccc23)C1` (stereo partly drawn) [5-p-tolylbicydo[3.1.0]hexan-2-amine] as the molecule, how does the inhibition at 0.5 µM [1] read?
**A.** Its inhibition at 0.5 µM is 42%.

**Q.** What about the inhibition at 0.5 µM (dopamine (DA) uptake) of the same molecule?
**A.** Its inhibition at 0.5 µM is 39%.

**Q.** And the inhibition at 0.5 µM (serotonin (5-HT) uptake)?
**A.** The inhibition at 0.5 µM was 74%.
